The experiment relates to host cells. Nature of the experiment: Inhibition of host cells by myrcene during fermentation. The experiment is classed as cell-based. Conditions: host cells in fermentation; read-out: IC50 (inhibitory to host cells).

We go through one molecule from patent US20260071239A1, “COMPOSITIONS AND METHODS FOR IMPROVED CELL CULTURE EFFICIENCY” (Amyris, Inc., priority 2022, published 2026).

The structures appear in SMILES notation. Values after ≈ are worked out from the molar mass of the structure shown.

Consider `C=CC(=C)CCC=C(C)C` [Myrcene, myrcene], for which the IC50 – broadly, the concentration needed to halve the response being measured – was 50 to 100 µg/mL (≈ 367 to 734 µM).
